Laboratory results taken from US20230115817A1, “CRYSTAL OF PDE3/PDE4 DUAL INHIBITOR AND USE THEREOF” (Chia Tai Tianqing Pharmaceutical Group Co., Ltd., priority 2020, published 2023).

Tests used:
[1] = Solid stability testing of crystalline form B (HPLC); assay type: physicochemical
Description: Example 6: Stability Study of Solid Crystalline Form B of the Compound of Formula (I) High Performance Liquid Chromatography (HPLC)
The chromatographic conditions of the HPLC method are seen in table below: Chromatographic column: Zorbax SB C-18, 4.6 mm×150 mm, 5 μm (PDS-HPLC-007)
Mobile phase A: 0.1% TFA in water
Preparation of sample: the sample was dissolved in a mixed solvent of acetonitrile and water (acetonitrile:water=50:50 (v/v))
The stability of the compound in the following conditions was examined, and samples were taken at different time points to detect the content. About 5 mg of the crystalline form B of the compound of formula (I) was accurately weighted in duplicate, transferred to a dry and clean glass bottle, spread into a thin layer as test samples, and placed in experimental conditions of influential factors ((60° C.), (relative humidity 92.5%), illumination (total illumination of 1.2×106 Lux·hr/near UV energy of 200 w·hr/m2), (40° C., relative humidity 75%), or (60° C., relative humidity 75%)). The samples were covered with aluminum foils having holes, and thus completely exposed to the conditions. Sampling analysis was performed at 5 days, 10 days, 1 month, 2 months and 3 months. The samples were completely exposed to illumination (visible light of 1200000 Lux, UV of 200 W) at room temperature.

[2] = Hygroscopicity study (dynamic vapor sorption); assay type: physicochemical; details: 25° C., 0%-90%-0% RH
Description: Example 7: Hygroscopicity Study of Crystalline Form B of Compound of Formula (I)
Instrument model: SMS DVS Advantage
Test conditions: the sample (10-20 mg, the crystalline form B prepared in Example 3) was placed in DVS sample tray for testing.
Balancing: dm/dt=0.01%/min (shortest: 10 min, longest: 180 min)
Drying: drying at 0% RH for 120 min
RH (%) test gradient: 10%

[3] = Pharmacokinetic study in beagle dogs; assay type: in vivo
Description: Experimental Example 3: Pharmacokinetic Study in Beagle Dogs
In this study, male beagle dogs were selected as test animals, and LC-MS/MS was used for quantitatively measuring the drug concentration in plasma of beagle dogs at different time points after intravenous injection or intragastric administration of the compound of formula (I) so as to evaluate the pharmacokinetics of the compound of formula (I) in beagle dogs.
The clear solution of the compound of formula (I) was injected into two beagle dogs of 10-12 kg via the cephalic vein or saphenous vein, and the clear solution of the compound of formula (I) was administered intragastrically to two beagle dogs of 10-12 kg (fasted overnight). The animals were all subjected to a blood collection of approximately 500 μL each time from peripheral veins at 0.0333, 0.0833, 0.25, 0.5, 1, 2, 4, 6, 8 and 24 h post-dose, and the blood was transferred into commercial centrifuge tubes containing 0.85-1.15 mg of K2 EDTA.2H2O anticoagulant, and plasma was separated by centrifugation at 3000 g for 10 min at 4° C. The plasma concentration was measured by LC-MS/MS, and the relevant pharmacokinetic parameters were calculated using pharmacokinetic software WinNonlin™ Version 6.3 (Pharsight, Mountain View, Calif.) using non-compartmental model linear-log trapezoidal method.

[4] = tested on: cigarette smoke-induced rat acute lung injury model; assay: Pharmacodynamic study in cigarette smoke-induced rat acute lung injury model; assay type: in vivo, Sprague-Dawley rats; details: atomization 0.05 and 0.15 mg/ml, 30 min daily
Description: Experimental Example 5: Pharmacodynamic Study in Cigarette Smoke-Induced Rat Acute Lung Injury Model
Male Sprague-Dawley rats (supplied by Shanghai SLAC Laboratory Animal Co., Ltd.), SPF grade, approximately 200 g.
1. Animals were randomly divided into 6 groups according to body weight after arrival and a one-week acclimation;
2. On days 1-3 of the experiment, the corresponding compound of each group was atomized for 30 min. The animals in the model group and the treatment groups were exposed to cigarette smoke for 1 h, and after a 4-h interval, the animals were exposed to cigarette smoke again for 1 h. Cigarette smoke was given twice daily for 3 consecutive days. The control group animals were exposed to room air;
3. On day 4 of the experiment, the corresponding compound of each group was atomized for 30 min, and then the animals in the model group and the treatment groups were given the atomized 150 ng/mL LPS for 15 min by inhalation. After 3 h (from the time starting atomization), the animals were exposed to cigarette smoke for 1 h, and then the lung function (Penh and F) of the animals was examined; bronchoalveolar lavage fluid was collected for cell counting after the animals were euthanized with CO2. […]

PDE4 = details: cited from earlier work
[5] = cited from earlier work
[6] = in vivo; cited from earlier work
[7] = intragastric administration 3 mg/kg
[8] = intravenous injection 0.5 mg/kg

CCOc1cc2c(cc1OC)-c1c/c(=N\c3c(C)cc(C)cc3C)n(CCNC(=O)c3c(O)nnn3C)c(=O)n1CC2
Total impurities % ([1]; 40° C.-75% RH-1 month): 0.10% | Total impurities % ([1]; 40° C.-75% RH-2 months): 0.08% | Total impurities % ([1]; 40° C.-75% RH-3 months): 0.09% | Total impurities % ([1]; 40° C.-75% RH-10 days): 0.10% | Total impurities % ([1]; 60° C.-75% RH-1 month): 0.10% | Total impurities % ([1]; 60° C.-75% RH-10 days): 0.10% | Total impurities % ([1]; 60° C.-5 days): 0.10% | Total impurities % ([1]; 60° C.-10 days): 0.11% | Total impurities % ([1]; 92.5% RH-5 days): 0.11% | Total impurities % ([1]; 92.5% RH-10 days): 0.10% | Total impurities % ([1]; Day 0): 0.11% | Total impurities % ([1]; Illumination (1.2×106 Lux·hr, near UV 200 w·hr/m2)): 0.10% | Total impurities % ([1]; In the dark): 0.11% | Solid stability (in words) ([1]; high temperature, high humidity or illumination): good stability | Hygroscopicity (DVS, in words) [2]: low hygroscopicity

CCOc1cc2c(cc1OC)-c1c/c(=N\c3c(C)cc(C)cc3C)n(CCNC(=O)c3c(O)nnn3C)c(=O)n1CC2 [Compound of formula (I)]
Area under plasma concentration-time curve (0-inf) [3, 7]: 0.123 µM·h | Peak concentration [3, 7]: 59.4 nM | Time to peak [3, 7]: 0.6 h | Area under plasma concentration-time curve (0-inf) [3, 8]: 0.21 µM·h | Half-life [3, 8]: 18 min | Plasma clearance [3, 8]: 70.3 mL/min/kg | bioavailability ([3]; male, dog, plasma, po, intragastric administration 3 mg/kg): 7.5% | Airway resistance index Penh (Mch challenge) [4]: reduce | Total number of white blood cells in BALF [4]: reduce

COc1cc2c(cc1OC)-c1c/c(=N\c3c(C)cc(C)cc3C)n(CCNC(N)=O)c(=O)n1CC2 [RPL554]
PDE4 inhibitory activity (in words) (PDE4): unsatisfactory | Solubility (in words) [5]: poor solubility | Plasma clearance (in words) [6]: high plasma clearance

COc1cc2c(cc1OC)-c1cc(Oc3c(C(C)C)cccc3C(C)C)nc(=O)n1CC2 [RPL565]
PDE4 inhibitory activity (in words) (PDE4): unsatisfactory | Solubility (in words) [5]: poor solubility | Plasma clearance (in words) [6]: high plasma clearance
